Structures can show the parent of a compound that is named as a salt.
What was measured:
platelet aggregation = details: enantiomers compared, per EP 281459; cited from earlier work
[1] = compared with dextrorotatory isomer, per EP 281459; cited from earlier work
[2] = compared with Form 1

Compound: COC(=O)[C@H](c1ccccc1Cl)N1CCc2sccc2C1 [clopidogrel hydrogen sulfate, hydrogen sulfate of methyl (+)-(S)-α-(2-chlorophenyl)-4,5,6,7-tetrahydrothieno[3,2-c]pyridine-5-acetate]
- platelet aggregation inhibiting activity (platelet aggregation): excellent platelet aggregation inhibiting activity

Compound: COC(=O)C(c1ccccc1Cl)N1CCc2sccc2C1 (single isomer, unassigned) [levorotatory isomer]
- platelet aggregation inhibiting activity (platelet aggregation): less active
- tolerance [1]: less well tolerated

Compound: COC(=O)[C@H](c1ccccc1Cl)N1CCc2sccc2C1.O=S(=O)(O)O [Form 2, hydrogen sulfate of methyl (+)-(S)-α-(2-chlorophenyl)-4,5,6,7-tetrahydrothieno[3,2-c]pyridine-5-acetate]
- compactness of bulk solid [2]: more compact
- electrostatic behaviour of bulk solid [2]: much less electrostatic than Form 1
